In patent publication US20260308158A1, “TARGETING RNAS ASSOCIATED WITH TAUOPATHIES WITH SMALL MOLECULES” (University of Florida Research Foundation, Incorporated, priority 2023, published 2026):

Key:
[1] = test system: DDPAC I17T MAPT mini-gene (exon 10 splicing); assay: 4R/3R MAPT mRNA by RT-qPCR, HeLa cells transfected with DDPAC I17T mini-gene; type: cell-based
Procedure: RNA Isolation and Real-Time Quantitative PCR (RT-qPCR). HeLa cells were treated as described in the Luciferase Reporter assay to Study Exon 10 Alternative Splicing. LAN5 cells were seeded in 12-well plates at 0.2×10^6 cells per well, treated with compound or ASO, and incubated for 48 h. Compound stocks prepared in DMSO and ASO stocks prepared in water were diluted in growth medium and added to cells. Total RNA was extracted from cells and analyzed via RT-qPCR to determine levels of 3R and 4R tau mRNA. In brief, the cells were washed with 1×DPBS and then lysed in the well using 300 μL of Lysis Buffer provided in a Quick-RNA MiniPrep kit (Zymo Research), which was used to extract total RNA per the manufacturer's protocol including the on-column DNase I digestion. The concentration of total RNA was measured by NanoDrop 2000 (Thermo Fisher Scientific). Only samples with OD260/OD280>1.8 were carried forward for analysis. Reverse transcription (RT) was carried out on 200 ng of total RNA using a qScript cDNA synthesis kit (QuantaBio) in a total volume of 10 μL according to the manufacturer's protocol. An Applied Biosystems QS5 384-well PCR system was used to complete qPCR reactions with Power SYBR Green Master Mix (Life Technologies), 600 nM each primer (Table S3), 20 ng of cDNA (1 μL of the RT reaction), in a total volume of 33 μL. Technical triplicates (10 μL each) were aliquoted into 384-well qPCR plates (Applied biosystems, 4483285). Subsequent qPCR analysis was performed using an Applied Biosystems QS5 384-well PCR system (software v.1.3.0). 4R/3R ratio were analyzed using ΔΔCt method using Equation 2: […]
where ΔCt 4R or ΔCt 3R is the difference between the Ct values for the 4R or 3R MAPT mRNA and a housekeeping gene (18S rRNA) in total RNA from cells.

[2] = molecular target: DDPAC I17T mutant RNA; assay: Fluorescent binding affinity, DDPAC I17T mutant RNA
Procedure: Fluorescent Binding Affinity Measurements. Binding assays were completed as previously described.^30 Briefly, the RNA of interest was folded in 1× Assay Buffer-1 (AB1: 8 mM Na2HPO4, pH 7.0, 185 mM NaCl, and 1 mM EDTA) by heating at 95° C. for 30 s followed by slowly cooling to room temperature. Bovine serum albumin (BSA) was then added to a final concentration of 40 μg/mL to afford 1× Assay Buffer-2 (AB2: 8 mM Na2HPO4, pH 7.0, 185 mM NaCl, 1 mM EDTA, and 40 μg/mL BSA). The RNA solution was serial diluted with 1×AB2. Then, compound of interest was added to the RNA solutions to a final concentration of 0.5 μM. […] Fluorescence intensity was measured using a Tecan Plate Reader (Gain: 100, Integration time: 40 μs). […] The change in fluorescence of the small molecule was calculated by its comparison to samples lacking RNA. Binding affinity was calculated using Equation 1, as previously described:^30
where I and I0 are the measured fluorescence intensity of the compound with or without RNA, respectively, Δε is the difference between the fluorescence intensity with the infinite concentration of RNA and the fluorescence intensity without RNA, [SM]0 and [RNA]0 are the concentrations of the small molecule (SM) and RNA, respectively, and Kd is the dissociation constant.

[3] = test system: DDPAC I17T model RNA; assay: Optical melting, DDPAC I17T RNA; type: binding; settings: 2 at 1.5 μM
Procedure: Optical Melting Experiments. The thermal stabilities of WT, DDPAC, and DDPAC+I17T model RNAs were analyzed by optical melting in the presence or absence of compound 1 or 2 as previously described.^18 The RNAs (2 μM) were heated to 95° C. in 1×PBS buffer and slowly cooled to room temperature. The samples were then cooled to 15° C. in the presence of compound 1 (10 μM; 0.1% (v/v) DMSO), 2 (1.5 μM; 0.1% (v/v) DMSO) or vehicle (0.1% (v/v) DMSO) and then heated to 85° C. at a rate of 1° C. per min. Absorbance as a function of temperature was measured at 260 nm using a Beckman Coulter DU800 UV/vis spectrophotometer. Melting curves were fitted with MeltWin 3.5.^31

[4] = Body weight / tolerability, htau mice; type: in vivo, htau mouse; settings: 100 mg/kg p.o. q.o.d., 20 days
Excerpt: hTau Mice Studies. htau mice and WT mice (C57BL/6J) were purchased from Jackson Laboratories. htau mice were maintained in-house through breeding between htau+/− mice. Genotype was confirmed by PCR amplification as previously described.^18 Only homozygous mice were used in in vivo studies. Mice were randomly assigned to a treatment group, which were age- and gender-matched (n=X). In these studies, mice were >9 months of age since cognitive and physiological impairments in htau mice was age-dependent and were not presented in young mice (<4 months) with early-stage tau pathology.^42 Mice were orally administered vehicle (5/5/90 DMSO/Tween-80/H2O) or 100 mg/kg of 2 in the same formulation every other day (q.o.d.). During the treatment period, nesting activity was assessed, as describe in Nesting Activity below. After 20 days, the mice were euthanized (in accordance with guidelines provided by the American Veterinarian Medical Association), and the brain was harvested for analysis. One hemisphere of the brain was frozen at −80° C. for RT-qPCR analyses while the other was used for histological studies.

[5] = test system: WT mice; assay: Nesting activity, WT mice; type: in vivo, mouse
Procedure: Nesting Activity. From Day 1 to Day 20, mice were individually housed and nesting material from the previous day was removed. An intact 3.0 g nestlet was placed within each cage. Around 15 h later, the resulting nest was photographed for qualitative scoring, and the untorn nestlet was weighed if present. All nest images and weights were analyzed by a blinded individual and based on published criteria.^43 In brief, nesting is scored on a rating scale of 1-5 where if the nestlet is over 90% intact, it is given a nestlet score is 1 (Poor; FIG. 4C). When the nestlet is partially torn but >50% remains, the nestlet score is 2; a score of 3 is assigned when 50-90% of the nestlet is torn but spread around the cage and no identifiable nest site is found (Medium; FIG. 4C). When more than 90% of the nestlet is torn and the nest is identifiable but flat, the nestlet score is 4. When a near perfect nest is built and the wall is higher than the mouse's body, it is assigned a nestlet score of 5 (Good; FIG. 4C).

Kd (estimated; no saturable binding) [2]: > 50 µM
SMILES: COc1cc(N)ncc1CCCN(C)CCCn1cnc2c3ccccc3n(C)c2c1=O [Compound 2, 3-(3-((3-(6-amino-4-methoxypyridin-3-yl)propyl)(methyl)amino)propyl)-5-methyl-3,5-dihydro-4H-pyrimido[5,4-b]indol-4-one]
PSI10 (PSI of MAPT exon 10) vs vehicle [1]: not WT I17T or DDPAC I17T mutant
change in 4R/3R ratio (not statistically significant) ([1]; 1 at 10 μM or 2 at 1.5 μM): < 16%
effect on Tm [3]: no effect on the Tm
change in weight [4]: no change in the weight
tolerability [4]: well tolerated
nesting behavior vs no treatment ([5]; 20 days, 100 mg/kg p.o. q.o.d.): no significant difference in nesting behavior
nest score at Day 20 ([5]; scale 1-5, 100 mg/kg p.o. q.o.d.): 4.1±0.2
average nest score over time ([5]; scale 1-5, over 20 days, 100 mg/kg p.o. q.o.d.): 3.7-4.3
